Counter-ions that a name gives are not always drawn. Like-named read-outs stand apart in the source and are kept apart here.
How the values were obtained:
Plasmodium falciparum = test: Antimalarial activity in vitro towards Plasmodium falciparum ([3H]hypoxanthine incorporation, infected human erythrocytes); type: cell-based; details: Erythrocyte, approximately 48 hours; for IC50 upper bound (active at tested concentration): Table I; for IC50: Table II
Protocol: Evaluation of the antimalarial activity in vitro is carried out according to the method of DESJARDINS, CANFIELD, HATNES and CHULAY (Antimicrob. Agents Chemother., 1979, 16, 710-718). A compound according to the invention is brought into contact for approximately 48 hours with human erythrocytes infected with Plasmodium falciparum. When a radioactive nucleic acid precursor, hypoxanthine, is added to the preparation, only erythrocytes infected with Plasmodium and not affected by the said compound incorporate this precursor. […] The results are presented in Table I below, in the form of an IC50 (or ED50) (concentration of compound capable of inhibiting in vitro the growth of the parasites by 50%).
The derivatives according to the above examples are tested at three concentrations, 100, 33 and 10 nanomolar.

[1] = test system: Plasmodium vinckei, petteri or chabaudi; test: Antimalarial activity in vivo, infected mice, 4 days; design: species or system petteri or chabaudi (male Swiss mice); details: ip, I.P., twice daily for 4 consecutive days
Protocol: This activity is measured according to the test described by PETERS W. (Chemotherapy and Drug resistance in Malaria, 1970). A compound according to the invention is administered for 4 consecutive days to mice infected beforehand with malaria using Plasmodium vinckei, petteri or chabaudi.
The said compound is dissolved in 0.9% aqueous NaCl solution or, where appropriate, in 10% aqueous gum arabic solution. The preparations are thus administered intraperitoneally or subcutaneously to male Swiss mice of average weight 30 to 40 g which have been infected beforehand intravenously with Plasmodium petterei or P. chabaudi (10^6 infected cells). The compound is administered twice daily for 4 consecutive days, the first injection being performed 2 hours after infestation, and the second 10 hours after. The parasitaemia is determined by means of a smear on the day following the end of the treatment.
The results are collated in Table II, in the form of an ED50 (dose of compound administered in vivo capable of a 50% inhibition of the growth of the parasites).

[2] = Semi-chronic toxicity in vivo; details: mouse, mice
[3] = 33 nM, read-out: Plasmodium IC50 in vitro resp. at 33 nM
[4] = 100 nM, read-out: Plasmodium IC50 in vitro resp. 100 nM
[5] = ip, I.P., 2 injections daily for four days, read-out: Toxicity LD50 I.P.
[6] = po, P.O., semi-chronic, four days, read-out: Toxicity LD50 P.O.

Compound | IC50 upper bound (active at tested concentration) (Plasmodium falciparum; [3]) | IC50 upper bound (active at tested concentration) (Plasmodium falciparum; [4]) | ED50 [1] | LD50 [2, 5] | LD50 [2, 6] | IC50 (Plasmodium falciparum)
Cc1cccc(=N)n1CCCCCCCCCCCCn1c(C)cccc1=N [Example 4, 1,1'-(1,12-dodecanediyl)bis(6-methyl-2(1H)-pyridinimine) dihydrobromide] | < 33 nM | < 100 nM |  |  |  | 
Cc1ccc(C)n(CCCCCCCCCCCCn2c(C)ccc(C)c2=N)c1=N [Example 19, 1,1'-(1,12-dodecanediyl)bis(3,6-dimethyl-2(1H)-pyridinimine)] | < 33 nM | < 100 nM |  |  |  | 
Cc1ccc(=N)n(CCCCCCCCCCCCn2cc(C)ccc2=N)c1 [Example 3, 1,1'-(1,12-dodecanediyl)bis(5-methyl-2(1H)-pyridinimine) dihydrobromide] | < 33 nM | < 100 nM | 3 mg/kg | 6.5 mg/kg | > 300 mg/kg | 0.5 nM
N=c1ccc(Cl)cn1CCCCCCCCCCCCn1cc(Cl)ccc1=N [Example 9, 1,1'-(1,12-dodecanediyl)bis(5-chloro-2(1H)-pyridinimine) dihydrobromide] | < 33 nM | < 100 nM | 4 mg/kg | 10 mg/kg | > 200 mg/kg | 1.4 nM
Cc1ccn(CCCCCCCCCCCCn2ccc(C)c(C)c2=N)c(=N)c1C [Example 17, 1,1'-(1,12-dodecanediyl)bis(3,4-dimethyl-2(1H)-pyridinimine)] | < 33 nM | < 100 nM |  |  |  | 
Cc1ccc(=N)n(CCCCCCCCCCCCn2c(C)c(C)ccc2=N)c1C [Example 22, 1,1'-(1,12-dodecanediyl)bis(5,6-dimethyl-2(1H)-pyridinimine)] | < 33 nM | < 100 nM |  |  |  | 
CCc1ccn(CCCCCCCCCCCCCCCCn2ccc(CC)cc2=N)c(=N)c1 [Example 16, 1,1'-(1,16-hexadecanediyl)bis(4-ethyl-2(1H)-pyridinimine) dihydrobromide] | > 33 nM | < 100 nM |  |  |  | 
CCc1ccn(CCCCCCCCCCCCn2ccc(CC)cc2=N)c(=N)c1 [Example 24, 1,1'-(1,12-dodecanediyl)bis(4-ethyl-2(1H)-pyridinimine)] |  | > 100 nM |  |  |  | 
Cc1ccc(=N)n(CCCCCCCCn2cc(C)ccc2=N)c1 [Example 12, 1,1'-(1,8-octanediyl)bis(5-methyl-2(1H)-pyridinimine) dihydrobromide] | > 33 nM | < 100 nM |  |  |  | 
Cc1ccc(-c2ccn(CCCCCCCCCCCCn3ccc(-c4ccc(C)cc4)cc3=N)c(=N)c2)cc1 [Example 7, 1,1'-(1,12-dodecanediyl)bis(4-(4-methyl-phenyl)-2(1H)-pyridinimine) dihydrobromide] | < 33 nM | < 100 nM |  |  |  | 
Cc1ccn(CCCCCCCCn2ccc(C)cc2=N)c(=N)c1 [Example 13] | < 33 nM | < 100 nM |  |  |  | 
N=c1ccc(-c2ccccc2)cn1CCCCCCCCCCCCn1cc(-c2ccccc2)ccc1=N [Example 5, 1,1'-(1,12-dodecanediyl)bis(5-phenyl-2(1H)-pyridinimine) dihydrobromide] | < 33 nM | < 100 nM |  |  |  | 
CCc1cccn(CCCCCCCCCCCCn2cccc(CC)c2=N)c1=N [Example 23, 1,1'-(1,12-dodecanediyl)bis(3-ethyl-2(1H)-pyridinimine)] | > 33 nM | < 100 nM | > 5 mg/kg | 23 mg/kg | > 400 mg/kg | 7.2 nM
N=c1c(OCc2ccccc2)cccn1CCCCCCCCCCCCn1cccc(OCc2ccccc2)c1=N [Example 6, 1,1'-(1,12-dodecanediyl)bis(3-phenylmethoxy-2(1H)-pyridinimine) dihydrobromide] | < 33 nM | < 100 nM |  |  |  | 
CCc1cccc(=N)n1CCCCCCCCCCCCn1c(CC)cccc1=N [Example 26, 1,1'-(1,12-dodecanediyl)bis(6-ethyl-2(1H)-pyridinimine)] | < 33 nM | < 100 nM |  |  |  | 
N=c1cc(Br)ccn1CCCCCCCCCCCCn1ccc(Br)cc1=N [Example 10, 1,1'-(1,12-dodecanediyl)bis(4-bromo-2(1H)-pyridinimine) dihydrobromide] | < 33 nM | < 100 nM |  |  |  | 
CCc1ccc(=N)n(CCCCCCCCCCCCn2cc(CC)ccc2=N)c1 [Example 25, 1,1'-(1,12-dodecanediyl)bis(5-ethyl-2(1H)-pyridinimine)] | < 33 nM | < 100 nM | > 5 mg/kg | 7.5 mg/kg | > 200 mg/kg | 3.8 nM
Cc1cc(=N)n(CCCCCCCCCCCCn2cc(C)c(C)cc2=N)cc1C [Example 20, 1,1'-(1,12-dodecanediyl)bis(4,5-dimethyl-2(1H)-pyridinimine)] | < 33 nM | < 100 nM |  |  |  | 
Cc1cc(C)n(CCCCCCCCCCCCn2c(C)cc(C)cc2=N)c(=N)c1 [Example 21, 1,1'-(1,12-dodecanediyl)bis(4,6-dimethyl-2(1H)-pyridinimine)] | < 33 nM | < 100 nM |  |  |  | 
Cc1ccn(CCCCCCCCCCCCCCCCn2ccc(C)cc2=N)c(=N)c1 [Example 15, 1,1'-(1,16-hexadecanediyl)bis(4-methyl-2(1H)-pyridiniminedihydrobromide] | < 33 nM | < 100 nM |  |  |  | 
Cc1cccn(CCCCCCCCCCCCn2cccc(C)c2=N)c1=N [Example 2, 1,1'-(1,12-dodecanediyl)bis(3-methyl-2(1H)-pyridinimine) dihydrobromide] | < 33 nM | < 100 nM | 3 mg/kg | 20 mg/kg | > 500 mg/kg | 1.8 nM
CCCCc1cccn(CCCCCCCCCCCCn2cccc(CCCC)c2=N)c1=N [Example 8, 1,1'-(1,12-dodecanediyl)bis(3-n-butyl-2(1H)-pyridinimine) dihydrobromide] | < 33 nM | < 100 nM |  |  |  | 
Cc1ccn(CCCCCCn2ccc(C)cc2=N)c(=N)c1 [Example 14, 1,1'-(1,6-hexanediyl)bis(4-methyl-2(1H)-pyridinimine) dihydrobromide] | > 33 nM | < 100 nM |  |  |  | 
N=c1c(Cl)cc(C(F)(F)F)cn1CCCCCCCCCCCCn1cc(C(F)(F)F)cc(Cl)c1=N [Example 11, 1,1'-(1,12-dodecanediyl)bis(3-chloro-5-trifluoromethyl-2(1H)-pyridinimine) dihydrobromide] | < 33 nM | < 100 nM |  |  |  | 
Cc1cc(C)c(=N)n(CCCCCCCCCCCCn2cc(C)cc(C)c2=N)c1 [Example 18, 1,1'-(1,12-dodecanediyl)bis(3,5-dimethyl-2(1H)-pyridinimine)] | < 33 nM | < 100 nM |  |  |  | 

Source: patent US5834491A, “Bis(2-aminopyridine)s, preparation method therefor and use thereof for controlling parasitic infections” (priority 1994, dated 1998)
